{"source": "patent US20160101067A1", "about": "“SUPRAMOLECULAR COMPLEXES OF POLYANIONIC POLYMERS AND SPERMIDINE IN TISSUE MAINTENANCE AND REPAIR” (TIXUPHARMA, priority 2013, published 2016)", "test_system": "human fibroblasts (ATCC-CRL-2703)", "assay": "Fibroblast proliferation, MTT coloration", "type": "cell-based", "protocol": "These supramolecular complexes were tested to evaluate the stimulatory activity on human fibroblasts (ATCC-CRL-2703). […] Cells were exposed to each complex for 24 and 48 hours (medium was replaced every 24 h) at 37° C. and 5% CO2. At the end of incubation period, MTT coloration was performed in order to evaluate cell viability and the increasing proliferating rate compared to untreated control cells. For each determination 6 tests were carried out. After exposure, cells were washed with […] of PBS, then 200 μl of MTT-medium are added to each culture well and incubated for 4 hours at 37° C. and 5% CO2. MTT medium is then removed and 200 μl of MTT dissolving solution (10% Triton X-100 and 0.1 N HCl in dry isopropanol) were added. After shaking on a rotating plate for 20-30′ to dissolve crystals and homogenize the solution, absorbance was read at 570 nm; background reading at 690 nm.", "data": [{"smiles": "NCCCCNCCCN", "note": "[Spermidine (Spd) 3HCl, N-(3-aminopropyl)-1,4-butanediamine]", "values": [{"measurement": "% Proliferative increase at 24 h", "setting": "Spd 3HCl 10 nM", "result": 31.86, "unit": "%"}, {"measurement": "% Proliferative increase at 48 h", "setting": "Spd 3HCl 10 nM", "result": 35.96, "unit": "%"}, {"measurement": "% Proliferative increase at 24 h", "setting": "Spd 3HCl 100 nM", "result": 26.27, "unit": "%"}, {"measurement": "% Proliferative increase at 48 h", "setting": "Spd 3HCl 100 nM", "result": 29.39, "unit": "%"}, {"measurement": "% Proliferative increase at 24 h", "setting": "Spd 3HCl 1 μM", "result": 7.55, "unit": "%"}, {"measurement": "% Proliferative increase at 48 h", "setting": "Spd 3HCl 1 μM", "result": 13.01, "unit": "%"}, {"measurement": "% Proliferative increase at 24 h", "setting": "Spd 3HCl 10 μM", "result": 2.3, "unit": "%"}, {"measurement": "% Proliferative increase at 48 h", "setting": "Spd 3HCl 10 μM", "result": 8.48, "unit": "%"}, {"measurement": "% Proliferative increase at 24 h", "setting": "Spd 3HCl 100 μM", "result": 1.31, "unit": "%"}, {"measurement": "% Proliferative increase at 48 h", "setting": "Spd 3HCl 100 μM", "result": 4.09, "unit": "%"}, {"measurement": "% Proliferative increase at 24 h", "setting": "Spd 3HCl 1 mM", "result": "−0.16", "unit": "%"}, {"measurement": "% Proliferative increase at 48 h", "setting": "Spd 3HCl 1 mM", "result": "−3.22", "unit": "%"}, {"measurement": "% Proliferative increase at 24 h", "setting": "Spd 3HCl 10 mM", "result": "−9.85", "unit": "%"}, {"measurement": "% Proliferative increase at 48 h", "setting": "Spd 3HCl 10 mM", "result": "−9.5", "unit": "%"}, {"measurement": "effect on fibroblast proliferation at mmolar concentration", "setting": "mmolar concentration", "result": "suppressive effect"}, {"measurement": "pattern of the proliferative effect over concentration", "setting": "serial dilution", "result": "bimodal pattern"}, {"measurement": "effect on fibroblast proliferation at μmolar or nmolar levels", "setting": "μmolar or nmolar levels", "result": "positive effect"}]}]}
